Measured values reported in ChEMBL document CHEMBL4138123, “Design, synthesis and biological evaluation of novel pyrazolochalcones as potential modulators of PI3K/Akt/mTOR pathway and inducers of apoptosis in breast cancer cells” (Eur J Med Chem, 2017).

Assays:
Type in all cases: functional
[1] = system: MOLT-4; assay: Cytotoxicity against human MOLT4 cells assessed as growth inhibition after 48 hrs by sulforhodamine B assay; conditions: MOLT-4, 48 h; for CC50: read-out: LC50 (the source's name)
[2] = system: NCI-H226; assay: Cytotoxicity against human NCI-H226 cells assessed as growth inhibition after 48 hrs by sulforhodamine B assay; conditions: NCI-H226, 48 h
[3] = system: SNB-19; assay: Cytotoxicity against human SNB19 cells assessed as growth inhibition after 48 hrs by sulforhodamine B assay; conditions: SNB-19, 48 h; for CC50: read-out: LC50 (the source's name)
[4] = system: UACC-257; assay: Cytotoxicity against human UACC257 cells assessed as growth inhibition after 48 hrs by sulforhodamine B assay; conditions: UACC-257, 48 h
[5] = system: TK-10; assay: Cytotoxicity against human TK10 cells assessed as growth inhibition after 48 hrs by sulforhodamine B assay; conditions: TK-10, 48 h
[6] = system: MCF7; assay: Cytotoxicity against human MCF7 cells assessed as growth inhibition after 48 hrs by sulforhodamine B assay; conditions: MCF7, 48 h
[7] = system: CCRF-CEM; assay: Cytotoxicity against human CCRF-CEM cells assessed as cell growth at 0.01 uM after 48 hrs by sulforhodamine B assay relative to control; conditions: read-out: Activity
[8] = system: 786-0; assay: Cytotoxicity against human 786-0 cells assessed as cell growth at 0.01 uM after 48 hrs by sulforhodamine B assay relative to control; conditions: 786-0, 48 h, read-out: Activity
[9] = system: NCI/ADR-RES; assay: Cytotoxicity against human NCI/ADR-RES cells assessed as cell growth at 0.01 uM after 48 hrs by sulforhodamine B assay relative to control; conditions: read-out: Activity
[10] = system: IGROV-1; assay: Cytotoxicity against human IGROV1 cells assessed as cell growth at 0.01 uM after 48 hrs by sulforhodamine B assay relative to control; conditions: IGROV-1, 48 h, read-out: Activity
[11] = system: U-251; assay: Cytotoxicity against human U251 cells assessed as cell growth at 0.01 uM after 48 hrs by sulforhodamine B assay relative to control; conditions: U-251, 48 h, read-out: Activity
[12] = system: NCI-H322M; assay: Cytotoxicity against human NCI-H322M cells assessed as cell growth at 0.01 uM after 48 hrs by sulforhodamine B assay relative to control; conditions: read-out: Activity
[13] = system: HOP-62; assay: Cytotoxicity against human HOP62 cells assessed as cell growth at 0.01 uM after 48 hrs by sulforhodamine B assay relative to control; conditions: HOP-62, 48 h, read-out: Activity
[14] = system: NCI-H522; assay: Cytotoxicity against human NCI-H522 cells assessed as cell growth at 0.1 uM after 48 hrs by sulforhodamine B assay relative to control; conditions: NCI-H522, 48 h, read-out: Activity
[15] = system: SNB-19; assay: Cytotoxicity against human SNB19 cells assessed as cell growth at 0.1 uM after 48 hrs by sulforhodamine B assay relative to control; conditions: SNB-19, 48 h, read-out: Activity
[16] = system: IGROV-1; assay: Cytotoxicity against human IGROV1 cells assessed as cell growth at 0.1 uM after 48 hrs by sulforhodamine B assay relative to control; conditions: IGROV-1, 48 h, read-out: Activity
[17] = system: TK-10; assay: Cytotoxicity against human TK10 cells assessed as cell growth at 0.1 uM after 48 hrs by sulforhodamine B assay relative to control; conditions: TK-10, 48 h, read-out: Activity
[18] = system: HL-60(TB); assay: Cytotoxicity against human HL-60(TB) cells assessed as cell growth at 1 uM after 48 hrs by sulforhodamine B assay relative to control; conditions: HL-60, 48 h, read-out: Activity
[19] = system: NCI-H322M; assay: Cytotoxicity against human NCI-H322M cells assessed as cell growth at 1 uM after 48 hrs by sulforhodamine B assay relative to control; conditions: read-out: Activity
[20] = system: HCC 2998; assay: Cytotoxicity against human HCC2998 cells assessed as cell growth at 1 uM after 48 hrs by sulforhodamine B assay relative to control; conditions: HCC 2998, 48 h, read-out: Activity
[21] = system: SNB-19; assay: Cytotoxicity against human SNB19 cells assessed as cell growth at 1 uM after 48 hrs by sulforhodamine B assay relative to control; conditions: SNB-19, 48 h, read-out: Activity
[22] = system: T47D; assay: Cytotoxicity against human T47D cells assessed as cell growth at 1 uM after 48 hrs by sulforhodamine B assay relative to control; conditions: read-out: Activity
[23] = system: RPMI-8226; assay: Cytotoxicity against human RPMI8226 cells assessed as cell growth at 10 uM after 48 hrs by sulforhodamine B assay relative to control; conditions: RPMI-8226, 48 h, read-out: Activity
[24] = system: NCI-H23; assay: Cytotoxicity against human NCI-H23 cells assessed as cell growth at 10 uM after 48 hrs by sulforhodamine B assay relative to control; conditions: NCI-H23, 48 h, read-out: Activity
[25] = system: UACC-257; assay: Cytotoxicity against human UACC257 cells assessed as cell growth at 10 uM after 48 hrs by sulforhodamine B assay relative to control; conditions: UACC-257, 48 h, read-out: Activity
[26] = system: ACHN; assay: Cytotoxicity against human ACHN cells assessed as cell growth at 10 uM after 48 hrs by sulforhodamine B assay relative to control; conditions: read-out: Activity
[27] = system: PC-3; assay: Cytotoxicity against human PC3 cells assessed as cell growth at 10 uM after 48 hrs by sulforhodamine B assay relative to control; conditions: PC-3, 48 h, read-out: Activity
[28] = system: MDA-MB-468; assay: Cytotoxicity against human MDA-MB-468 cells assessed as cell growth at 10 uM after 48 hrs by sulforhodamine B assay relative to control; conditions: MDA-MB-468, 48 h, read-out: Activity
[29] = system: HL-60(TB); assay: Cytotoxicity against human HL-60(TB) cells assessed as cell growth at 100 uM after 48 hrs by sulforhodamine B assay relative to control; conditions: HL-60, 48 h, read-out: Activity
[30] = system: MOLT-4; assay: Cytotoxicity against human MOLT4 cells assessed as cell growth at 100 uM after 48 hrs by sulforhodamine B assay relative to control; conditions: MOLT-4, 48 h, read-out: Activity
[31] = system: RPMI-8226; assay: Cytotoxicity against human RPMI8226 cells assessed as cell growth at 100 uM after 48 hrs by sulforhodamine B assay relative to control; conditions: RPMI-8226, 48 h, read-out: Activity
[32] = system: HCT-15; assay: Cytotoxicity against human HCT15 cells assessed as cell growth at 100 uM after 48 hrs by sulforhodamine B assay relative to control; conditions: HCT-15, 48 h, read-out: Activity
[33] = system: SF-268; assay: Cytotoxicity against human SF268 cells assessed as cell growth at 100 uM after 48 hrs by sulforhodamine B assay relative to control; conditions: SF-268, 48 h, read-out: Activity
[34] = system: M14; assay: Cytotoxicity against human M14 cells assessed as cell growth at 100 uM after 48 hrs by sulforhodamine B assay relative to control; conditions: M14, 48 h, read-out: Activity
[35] = system: MDA-MB-435; assay: Cytotoxicity against human MDA-MB-435 cells assessed as cell growth at 100 uM after 48 hrs by sulforhodamine B assay relative to control; conditions: MDA-MB-435, 48 h, read-out: Activity
[36] = system: SN12C; assay: Cytotoxicity against human SN12C cells assessed as cell growth at 100 uM after 48 hrs by sulforhodamine B assay relative to control; conditions: read-out: Activity

Work on `COc1cc(C(=O)/C=C/c2cc(-c3ccc4c(c3)OCO4)n[nH]2)cc(OC)c1OC` yielded a GI50 [1] of 2.71 µM, a TGI [1] of 8.36 µM and a CC50 [1] of over 100 µM. It also gave a GI50 [2] of 1.52 µM, an LC50 (concentration killing 50% of cells) [2] of over 100 µM and a TGI [2] of 4.25 µM. It also gave a GI50 [3] of 2.34 µM, a TGI [3] of 11.7 µM and a CC50 [3] of 35.6 µM. The GI50 [4] was 2.95 µM, the LC50 [4] was 32 µM and the TGI [4] was 9.46 µM. It also gave a GI50 [5] of 2.9 µM, an LC50 [5] of 25.6 µM and a TGI [5] of 7.17 µM. The GI50 [6] was 1.06 µM, the LC50 [6] was 7.88 µM and the TGI [6] was 2.88 µM. The growth at 0.01 µM [7] was 99%, the growth at 0.01 µM [8] was 99% and the growth at 0.01 µM [9] was 95%. It also gave a growth at 0.01 µM [10] of 101%, a growth at 0.01 µM [11] of 98% and a growth at 0.01 µM [12] of 101%. For the same compound, the growth at 0.01 µM [13] was 100%, the growth at 0.1 µM [14] was 90% and the growth at 0.1 µM [15] was 93%. For the same compound, the growth at 0.1 µM [16] was 87%, the growth at 0.1 µM [17] was 92% and the growth at 1 µM [18] was 85%. The growth at 1 µM [19] was 84%, the growth at 1 µM [20] was 100% and the growth at 1 µM [21] was 75%. For the same compound, the growth at 1 µM [22] was 68%, the growth at 10 µM [23] was -48% and the growth at 10 µM [24] was 1%. For the same compound, the growth at 10 µM [25] was -2%, the growth at 10 µM [26] was -43% and the growth at 10 µM [27] was -46%. The growth at 10 µM [28] was -57%, the growth at 100 µM [29] was -31% and the growth at 100 µM [30] was -13%. For the same compound, the growth at 100 µM [31] was -47%, the growth at 100 µM [32] was -45% and the growth at 100 µM [33] was -89%. For the same compound, the growth at 100 µM [34] was -84%, the growth at 100 µM [35] was -88% and the growth at 100 µM [36] was -96%.
`COc1ccc(C(=O)/C=C/c2cc(-c3ccc4c(c3)OCO4)n[nH]2)cc1OC` gave a TGI [1] of 10.3 µM, a CC50 [1] of over 100 µM and an LC50 (concentration killing 50% of cells) [2] of over 100 µM. The TGI [2] was 11.2 µM, the TGI [3] was 15.2 µM and the CC50 [3] was 40.8 µM. For the same compound, the LC50 [4] was 56.4 µM, the TGI [4] was 22.1 µM and the GI50 [5] was 2.88 µM. The LC50 [5] was 70.4 µM, the TGI [5] was 8.97 µM and the GI50 [6] was 3.27 µM. For the same compound, the LC50 [6] was over 100 µM, the TGI [6] was 16.8 µM and the growth at 0.01 µM [7] was 99%. For the same compound, the growth at 0.01 µM [8] was 96%, the growth at 0.01 µM [10] was 100% and the growth at 0.01 µM [11] was 90%. For the same compound, the growth at 0.01 µM [12] was 93%, the growth at 0.01 µM [13] was 95% and the growth at 0.1 µM [14] was 87%. For the same compound, the growth at 0.1 µM [15] was 89%, the growth at 0.1 µM [16] was 93% and the growth at 0.1 µM [17] was 92%. It also gave a growth at 1 µM [18] of 89%, a growth at 1 µM [19] of 92% and a growth at 1 µM [20] of 104%. The growth at 1 µM [21] was 79%, the growth at 1 µM [22] was 79% and the growth at 10 µM [23] was -20%. It also gave a growth at 10 µM [24] of 28%, a growth at 10 µM [25] of 42% and a growth at 10 µM [26] of 13%. The growth at 10 µM [27] was 16%, the growth at 10 µM [28] was -45% and the growth at 100 µM [29] was -38%. For the same compound, the growth at 100 µM [30] was -20%, the growth at 100 µM [31] was -45% and the growth at 100 µM [32] was 2%. The growth at 100 µM [33] was -74%, the growth at 100 µM [34] was -77% and the growth at 100 µM [35] was -50%. For the same compound, the growth at 100 µM [36] was -73%.
